The subject of one experiment is INS1(832/13). The experiment can be described thus: Induction of glucose dependent insulin secretion in rat INS-1 832/13 cells expressing GLP-1R at 5 uM starved for 2 hrs in KRB buffer followed by glucose addition and measured after 90 mins by ELISA. In kind it is functional, cell-based. Background: ELISA stands for enzyme-linked immunosorbent assay.
Experiment [1] addresses Glucagon-like peptide 1 receptor (Homo sapiens) (UniProt P43220). The experiment in a line: Positive allosteric modulation of human GLP-1 receptor in HEK cells expressing luciferase2P assessed as cAMP level incubated for 4 hrs by luciferase based assay relative to GLP-1. It counts as functional, cell-based. Also noted: concentration or dose not given beside the values. Conditions: filed as positive allosteric modulator. For orientation: cAMP levels reflect the balance of adenylyl cyclase and phosphodiesterase activity.

The test system of experiment [2] is Mus musculus. The experiment can be described thus: Anti-diabetic activity against overnight-fasted male CD1 mouse assessed as reduction in blood glucose concentration at 10 to 30 mg/kg, ip preadministered with compound for 45 mins followed by 2.5 g/kg dextrose addition and measured after 30 mins by iGTT test. In kind it is functional, organism-based. Conditions: dose 10-30 mg/kg, time 75.0 min.

The nature of experiment [3]: Induction of glucose dependent insulin secretion in rat INS-1 832/13 cells expressing GLP-1R assessed as fold increase at 5 uM starved for 2 hrs in KRB buffer followed by 16.7 mM of glucose addition and measured after 90 mins in presence of GLP-1 by ELISA. It counts as functional, INS1(832/13). The settings on record: 1.5 h.
In experiment [4] the target is Glucagon-like peptide 1 receptor (Homo sapiens) (UniProt P43220). The experiment can be described thus: Positive allosteric modulation of human GLP-1 receptor in HEK cells expressing luciferase2P assessed as fold increase in GLP-1R activity incubated for 4 hrs in presence of GLP-1 by luciferase based assay relative to GLP-1 alone. In kind it is cell-based. The settings on record: filed as positive allosteric modulator.
Chain of Glucagon-like peptide 1 receptor (Homo sapiens) (P43220 whole entry): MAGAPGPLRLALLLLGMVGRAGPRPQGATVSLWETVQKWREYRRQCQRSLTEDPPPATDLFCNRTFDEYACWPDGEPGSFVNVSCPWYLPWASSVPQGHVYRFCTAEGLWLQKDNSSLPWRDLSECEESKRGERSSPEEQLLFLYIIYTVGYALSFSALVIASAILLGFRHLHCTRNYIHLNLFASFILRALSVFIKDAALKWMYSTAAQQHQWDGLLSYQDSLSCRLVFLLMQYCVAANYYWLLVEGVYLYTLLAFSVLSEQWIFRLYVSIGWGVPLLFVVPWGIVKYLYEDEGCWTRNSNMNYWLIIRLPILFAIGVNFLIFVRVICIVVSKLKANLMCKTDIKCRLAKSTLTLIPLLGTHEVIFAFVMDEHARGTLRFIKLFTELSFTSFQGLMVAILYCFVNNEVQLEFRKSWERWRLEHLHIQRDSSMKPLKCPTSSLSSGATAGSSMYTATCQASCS

The subject of experiment [5] is Mus musculus. The experiment in a line: Anti-diabetic activity against overnight-fasted male CD1 mouse assessed as reduction in blood glucose concentration at 5 to 30 mg/kg, ip preadministered with compound for 45 mins followed by 2.5 g/kg dextrose addition and measured after 60 mins by iGTT test. Conditions: dose 5-30 mg/kg, time 105.0 min. It counts as functional, organism-based.

The target of experiment [6] is Glucagon-like peptide 1 receptor (Homo sapiens) (UniProt P43220). The experiment can be described thus: Positive allosteric modulation of human GLP-1 receptor in HEK cells expressing luciferase2P incubated for 4 hrs in presence of 10 nM of GLP-1 by luciferase based assay. It counts as cell-based. Conditions: filed as positive allosteric modulator, dose 0.78-100 µM.

Experiment [7] concerns the target T1, Gastric inhibitory polypeptide receptor (Homo sapiens) (UniProt P48546).
T1 sequence (whole entry): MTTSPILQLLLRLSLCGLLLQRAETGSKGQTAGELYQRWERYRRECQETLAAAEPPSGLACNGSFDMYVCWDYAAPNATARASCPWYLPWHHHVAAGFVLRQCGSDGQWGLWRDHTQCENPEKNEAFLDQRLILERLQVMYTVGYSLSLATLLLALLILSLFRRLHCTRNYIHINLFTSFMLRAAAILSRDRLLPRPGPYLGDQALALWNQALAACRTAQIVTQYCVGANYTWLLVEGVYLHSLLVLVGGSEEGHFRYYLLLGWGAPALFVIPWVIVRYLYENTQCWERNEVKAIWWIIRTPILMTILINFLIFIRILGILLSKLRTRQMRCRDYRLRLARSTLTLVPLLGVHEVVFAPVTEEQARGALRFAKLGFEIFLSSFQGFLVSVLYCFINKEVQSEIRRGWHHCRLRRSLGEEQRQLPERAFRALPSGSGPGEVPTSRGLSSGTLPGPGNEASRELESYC
The experiment in a line: Positive allosteric modulation of GIPR (unknown origin) transfected in HEK cells expressing luciferase2P assessed as increase in luciferase activity. In kind it is cell-based. The settings on record: filed as positive allosteric modulator.

Experiment [8] has as its system Mus musculus. The experiment can be described thus: Anti-diabetic activity against overnight-fasted male CD1 mouse assessed as reduction in blood glucose concentration at 10 mg/kg, ip preadministered with compound for 45 mins followed by 2.5 g/kg dextrose addition and measured after 60 mins in the presence of sitagliptin by iGTT test relative to control. Also noted: scale not given: the % may be the effect or the level left. It counts as functional. Conditions: time 105 min, 1.75 h.

For experiment [9], the system named is Mus musculus. The experiment in a line: Anti-diabetic activity against overnight-fasted male CD1 mouse assessed as reduction in blood glucose concentration at 5 mg/kg, ip preadministered with compound for 45 mins followed by 2.5 g/kg dextrose addition and measured after 60 mins by iGTT test. The settings on record: time 105.0 min. In kind it is functional, organism-based.

For experiment [10], the system named is Mus musculus. The experiment can be described thus: Anti-diabetic activity against overnight-fasted male CD1 mouse assessed as reduction in blood glucose concentration at 10 to 30 mg/kg, ip preadministered with compound for 45 mins followed by 2.5 g/kg dextrose addition and measured after 60 mins by iGTT test relative to control. In kind it is functional. Details: scale not given: the % may be the effect or the level left. Conditions: dose 10-30 mg/kg, time 105 min, 1.75 h.

Experiment [11] has as its target Glucagon-like peptide 1 receptor (Homo sapiens) (UniProt P43220). The experiment can be described thus: Positive allosteric modulation of human GLP-1 receptor in HEK cells expressing luciferase2P at 5 uM incubated for 4 hrs in presence of varying concentrations of GLP-1 by luciferase based assay. It counts as cell-based. Conditions: filed as positive allosteric modulator.

Experiment [12] addresses Glucagon receptor (Homo sapiens) (UniProt P47871). The experiment in a line: Positive allosteric modulation of glucagon receptor (unknown origin) transfected in HEK cells expressing luciferase2P assessed as increase in luciferase activity. It counts as cell-based. The settings on record: filed as positive allosteric modulator.
Experiment [13] concerns Mus musculus. The experiment in a line: Anti-diabetic activity against overnight-fasted male CD1 mouse assessed as reduction in blood glucose concentration at 10 mg/kg, ip preadministered with compound for 45 mins followed by 2.5 g/kg dextrose addition and measured after 60 mins by iGTT test. In kind it is functional, organism-based. Conditions: time 105.0 min.
The target of experiment [14] is T2, Vasoactive intestinal polypeptide receptor 1 (Homo sapiens) (UniProt P32241).
T2 sequence (whole entry): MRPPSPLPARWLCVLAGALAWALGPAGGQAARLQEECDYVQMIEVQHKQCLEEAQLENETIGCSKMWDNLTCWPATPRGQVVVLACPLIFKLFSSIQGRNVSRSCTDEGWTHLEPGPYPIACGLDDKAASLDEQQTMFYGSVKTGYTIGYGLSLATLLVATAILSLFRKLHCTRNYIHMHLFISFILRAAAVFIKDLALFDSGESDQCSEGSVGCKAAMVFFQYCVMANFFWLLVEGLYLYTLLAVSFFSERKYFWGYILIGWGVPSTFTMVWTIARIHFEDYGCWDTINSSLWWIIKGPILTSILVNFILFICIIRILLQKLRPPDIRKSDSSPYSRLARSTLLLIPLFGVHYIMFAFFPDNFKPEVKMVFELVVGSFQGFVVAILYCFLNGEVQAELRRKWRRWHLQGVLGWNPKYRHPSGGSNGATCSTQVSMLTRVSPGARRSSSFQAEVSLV
The experiment in a line: Positive allosteric modulation of VIPR1 (unknown origin) transfected in HEK cells expressing luciferase2P assessed as increase in luciferase activity. Conditions: filed as positive allosteric modulator. It counts as cell-based.

SMILES strings stand for the structures. The source made the active and inactive calls. No cut-off for these calls is given here.

Chain of Glucagon receptor (Homo sapiens) (P47871 whole entry): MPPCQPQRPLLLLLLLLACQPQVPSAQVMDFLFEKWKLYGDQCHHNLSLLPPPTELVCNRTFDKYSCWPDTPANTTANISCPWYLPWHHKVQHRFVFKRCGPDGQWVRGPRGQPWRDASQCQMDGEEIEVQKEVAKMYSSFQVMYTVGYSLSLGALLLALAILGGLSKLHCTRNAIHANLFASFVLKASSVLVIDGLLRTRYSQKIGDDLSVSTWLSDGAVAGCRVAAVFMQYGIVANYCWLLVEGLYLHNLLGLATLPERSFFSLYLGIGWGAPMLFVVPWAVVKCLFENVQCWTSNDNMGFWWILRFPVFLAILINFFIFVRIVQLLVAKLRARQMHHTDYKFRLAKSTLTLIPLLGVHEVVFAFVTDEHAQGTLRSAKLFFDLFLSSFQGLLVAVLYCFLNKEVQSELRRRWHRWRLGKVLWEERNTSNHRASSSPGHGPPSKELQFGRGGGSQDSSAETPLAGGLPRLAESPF

Regarding `Cc1ccc(C(=O)c2c(N)sc3c2CCC(C)(C)C3)cc1`, the result (in the experiment with INS1(832/13); with Mus musculus [2]; with Mus musculus [5]; in [7]; with Mus musculus [9]; in experiment [11]) was Active. The outcome (in experiment [12]; in the experiment with Mus musculus [13]; in [14]) was Active. In addition, the Activity in [1] was 268%; in experiment [6], “Dose-Dependent Effect”; in the experiment on Mus musculus [8] it was around 75%; with Mus musculus [10], 50%. For the same molecule, the “fold change (FC)” value in [3] and in experiment [4] was above 2 throughout.

For the origin of these results see ChEMBL document CHEMBL6071137, “Synthesis and biological studies of 2-aminothiophene derivatives as positive allosteric modulators of glucagon-like peptide 1 receptor” (2024).
